Experimental data from PubChem BioAssay AID2060328 (Molecular Pharmacology Branch, DTP, NCI, 2025).

Test system: MDA-MB-231 multicell spheroids, viability (%T/C)
Test: Anticancer human tumor MDA-MB-231 cell line growth inhibition [IpAb];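 further: viability read after seven days of drug exposure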;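 on viability, T/C: 100% = DMSO vehicle control viability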
Settings: for IC50: curve of first compound; for viability, T/C: stronger effect = lower value
Description: Combinatorial screen of targeted agents with ipatasertib and abemaciclib in multi-cell type tumor spheroids
A high-throughput screen of multi-cell type tumor spheroids was designed to identify active combinations of targeted small molecules and ipatasertib or abemaciclib. Complex spheroids include a stromal component modeled by human endothelial cells (HUVEC) and fibroblasts modeled by human mesenchymal stem cells (MSCs). The concentration ranges selected for each drug and investigational agent were based upon clinically achievable concentrations if the clinical Cmax of the agent was known.
Compounds. The drugs and investigational agents: ipatasertib (NSC767898), abemaciclib(NSC768073), selumetinib (NSC741078), trametinib (758246), adavosertib (NSC754352), everolimus (NSC733504), sapanisertib (NSC764658), vemurafenib (NSC761431), venetoclax (NSC766270), copanlisib (NSC809693), apelisib (NSC765974), palbociblib (NSC758247), vemurafenib (NSC761431), dabrafenib (NSC764134), ravoxertinib (NSC781343), BMS-387032 (NSC767048), sotorasib (NSC818433), talazoparib (NSC767125) and afursertib (NSC778305), were obtained from the National Cancer Institute (NCI) Developmental Therapeutics Program Chemical Repository. The FDA-approved anticancer drug set is available from the NCI Developmental Therapeutics Program. […] The stock solutions were prepared in dimethyl sulfoxide (DMSO, Sigma-Aldrich, St. Louis, MO, cat. D2650) at 800-fold the tested concentration and stored at -70 degrees C prior to their use. All drugs and investigational agents were tested over a range starting from a high concentration at or near the clinical Cmax and decreasing in half-log increments. If the clinical Cmax for an agent had not been determined, the highest concentration tested was 10 microM.
NCI60 Cell Culture. NCI60 cell lines were obtained from the NCI Developmental Therapeutics Program Tumor Repository. For each lot of cells, the Repository performed Applied Biosystems AmpFLSTR Identifiler testing with PCR amplification to confirm consistency with the published Identifier STR profile for each cell line. Cells were kept in continuous culture for no more than 20 passages. The optimal seeding densities for each of the cell lines at each time point assessed were determined prior to performing the concentration response studies. Briefly, the NCI60 human tumor lines were grown as monolayers in RPMI 1640 medium supplemented with 10% FBS and 2 mmol/L L-glutamine.
An additional 9 lines were from the NCI60 cell line panel including MDA-MB-231 breast carcinoma, MDA-MB-468 breast carcinoma, MCF7 breast carcinoma, Hs578T breast carcinoma, MALME-3M melanoma, SK-MEL-2 melanoma, SK-OV-3 ovarian carcinoma, DU-145 prostate carcinoma, PC-3 prostate carcinoma, all cell lines along with major genetic alterations are listed on Table 2. Pooled donor human umbilical vein endothelial cells (HUVEC, Lonza, cat. CC-2519) and human mesenchymal stem cells (hMSC, Lonza, cat. PT-2501) were purchased from Lonza (Walkersville, MD).
PDMR cell lines were grown in complete medium (DC medium): Dulbecco's modified Eagle's medium (DMEM)/F12 supplemented with 5% fetal bovine serum (FBS), 2 mM L-glutamine, 100 U/mL penicillin and 100 µg/ml streptomycin, 0.4 µg/ml hydrocortisone, 10 ng/ml epidermal growth factor (EGF) recombinant human protein, 24 µg/mL adenine, and 0.1 mg/mL primocin. During culture from frozen stock vials, PDMR cells were cultured in the same medium containing 10 µM Y-27632 (see Table 3). The PDCs were cultured in complete DMEM/F12 media without 10 microM Y-27632 dihydrochloride for at least two passages prior to the screen. The pooled donor HUVEC and hMSC were cultured in endothelial cell growth medium 2 (PromoCell, Heidelberg, Germany, cat. C-22011) and mesenchymal stem cell growth medium 2 (PromoCell, cat. C-28009), respectively. For all experiments, HUVEC and hMSC were used at passages </=5.
[…]

[1] = second compound 0.1 µM, first compound 0.0316 µM
[2] = second compound 0.1 µM, first compound 0.1 µM
[3] = second compound 0.316 µM, first compound 0.0316 µM
[4] = second compound 0.316 µM, first compound 0.1 µM
[5] = second compound 1 µM, first compound 0.0316 µM
[6] = second compound 1 µM, first compound 0.1 µM
[7] = second compound 3.16 µM, first compound 0.0316 µM
[8] = second compound 3.16 µM, first compound 0.1 µM
[9] = second compound 10 µM, first compound 0.0316 µM
[10] = second compound 10 µM, first compound 0.1 µM

CC(C)n1nc(-c2ccc3oc(N)nc3c2)c2c(N)ncnc21 + CC(C)NCC(C(=O)N1CCN(c2ncnc3c2C(C)CC3O)CC1)c1ccc(Cl)cc1
IC50 (second compound 0.1 µM): 15.1 nM
IC50 (second compound 0.316 µM): 5.64 nM
IC50 (second compound 1 µM): 2.25 nM
IC50 (second compound 3.16 µM): 0.58 nM
IC50 (second compound 10 µM): < 0.316 nM
viability, T/C (second compound 0.1 µM, first compound 0.000316 µM): 90.9%
viability, T/C (second compound 0.1 µM, first compound 0.001 µM): 84%
viability, T/C (second compound 0.1 µM, first compound 0.00316 µM): 68.6%
viability, T/C (second compound 0.1 µM, first compound 0.01 µM): 54.5%
viability, T/C [1]: 42.5%
viability, T/C [2]: 40.5%
viability, T/C (second compound 0.316 µM, first compound 0.000316 µM): 86.8%
viability, T/C (second compound 0.316 µM, first compound 0.001 µM): 69.8%
viability, T/C (second compound 0.316 µM, first compound 0.00316 µM): 56.4%
viability, T/C (second compound 0.316 µM, first compound 0.01 µM): 43.8%
viability, T/C [3]: 38.6%
viability, T/C [4]: 35.4%
viability, T/C (second compound 1 µM, first compound 0.000316 µM): 67.4%
viability, T/C (second compound 1 µM, first compound 0.001 µM): 59%
viability, T/C (second compound 1 µM, first compound 0.00316 µM): 46.1%
viability, T/C (second compound 1 µM, first compound 0.01 µM): 36.5%
viability, T/C [5]: 31.7%
viability, T/C [6]: 29.8%
viability, T/C (second compound 3.16 µM, first compound 0.000316 µM): 53.3%
viability, T/C (second compound 3.16 µM, first compound 0.001 µM): 47%
viability, T/C (second compound 3.16 µM, first compound 0.00316 µM): 36.9%
viability, T/C (second compound 3.16 µM, first compound 0.01 µM): 28.3%
viability, T/C [7]: 26.1%
viability, T/C [8]: 23.3%
viability, T/C (second compound 10 µM, first compound 0.000316 µM): 38.3%
viability, T/C (second compound 10 µM, first compound 0.001 µM): 34.2%
viability, T/C (second compound 10 µM, first compound 0.00316 µM): 27.1%
viability, T/C (second compound 10 µM, first compound 0.01 µM): 18.1%
viability, T/C [9]: 15.2%
viability, T/C [10]: 14.6%

CCCS(=O)(=O)Nc1ccc(F)c(C(=O)c2c[nH]c3ncc(-c4ccc(Cl)cc4)cc23)c1F + CC(C)NCC(C(=O)N1CCN(c2ncnc3c2C(C)CC3O)CC1)c1ccc(Cl)cc1
IC50 (second compound 0.1 µM): 8310 nM
IC50 (second compound 0.316 µM): 6040 nM
IC50 (second compound 1 µM): 5310 nM
IC50 (second compound 3.16 µM): 1760 nM
IC50 (second compound 10 µM): < 31.6 nM
viability, T/C [1]: 106%
viability, T/C [2]: 106%
viability, T/C (second compound 0.1 µM, first compound 0.316 µM): 104%
viability, T/C (second compound 0.1 µM, first compound 1 µM): 97.2%
viability, T/C (second compound 0.1 µM, first compound 3.16 µM): 75.4%
viability, T/C (second compound 0.1 µM, first compound 10 µM): 45.1%
viability, T/C [3]: 98.1%
viability, T/C [4]: 95.9%
viability, T/C (second compound 0.316 µM, first compound 0.316 µM): 92.2%
viability, T/C (second compound 0.316 µM, first compound 1 µM): 87.3%
viability, T/C (second compound 0.316 µM, first compound 3.16 µM): 61.2%
viability, T/C (second compound 0.316 µM, first compound 10 µM): 41.1%
viability, T/C [5]: 80.1%
viability, T/C [6]: 84.8%
viability, T/C (second compound 1 µM, first compound 0.316 µM): 79.8%
viability, T/C (second compound 1 µM, first compound 1 µM): 71.3%
viability, T/C (second compound 1 µM, first compound 3.16 µM): 60.1%
viability, T/C (second compound 1 µM, first compound 10 µM): 38.3%
viability, T/C [7]: 59.3%
viability, T/C [8]: 68.2%
viability, T/C (second compound 3.16 µM, first compound 0.316 µM): 61.7%
viability, T/C (second compound 3.16 µM, first compound 1 µM): 56.7%
viability, T/C (second compound 3.16 µM, first compound 3.16 µM): 42.9%
viability, T/C (second compound 3.16 µM, first compound 10 µM): 30.9%
viability, T/C [9]: 45.4%
viability, T/C [10]: 48.2%
viability, T/C (second compound 10 µM, first compound 0.316 µM): 44.2%
viability, T/C (second compound 10 µM, first compound 1 µM): 36.6%
viability, T/C (second compound 10 µM, first compound 3.16 µM): 35%
viability, T/C (second compound 10 µM, first compound 10 µM): 27.6%
